pIC50: −log10 of the molar value. Where a name gives a salt, the structure may show the parent alone. Read-outs that look alike come from different tables or passages of the source. Values belong to the molecule of their own block, whether it stands above or below them.
Experiments:
L1210 cells = assay: In vitro Growth Inhibitory Activity Determination (L1210, MTT); format: cell-based; conditions: 3 days at 37° C., read-out: ID50 (L1210)
Experimental: L1210 cells were maintained in RPM-1640 a medium supplemented with 10% heat inactivated fetal bovine serum and […] mercaptomethanol/liter medium (RPMI-L). B16 cells were maintained in RPMI-1640 medium supplemented with 15% heat inactivated fetal bovine serum and antibiotics (RPMI-C).
Exponential growing L1210 cells (1×10^3 cells) or B16 cells (2-3×10^3 cells) in 0.1 mL medium were seeded on day 0 in a 96-well microtiter plate. On day 1, 0.1 mL aliquot of medium containing graded concentration of test analogs was added to the initial volume. After incubation at 37° C. in a humidified incubator for 3 days, the plates were centrifuged briefly and […] of the growth medium was removed. Cell cultures were incubated with […] of 3-(4,5-dimethylthiazol-2-yl)-2,5-diphenyltetrazolium bromide (MTT; 1 mg/ml in Dulbecco's phosphate buffer saline) for 4 hr. at 37° C. The resulting purple formazan precipitate was solubilized with […] of 0.04 N HCl in isopropyl alcohol. Absorbance was read in a Titertek Multiskan MCC scanning well spectrophotometer (Flow Laboratories) at a test wavelength of 570 nm and a reference wavelength of 630 nm.
The absorbances were stored on a floppy disk on a IBM-XT and uploaded on to a VAX computer. The ID50 values were determined by a computer program that fit all of the data (8 determinations per concentration and 12 concentrations per test analog) to the following equation:
Y=((Am-Ao)/(1+(X/ID50)n))+Ao
Am=absorbance of the control cells
Ao=absorbance of the cells in the presence of highest drug conc.
ID50 =dose of drug that inhibits the growth of cells to one half that of the control cells

B16F10 melanoma = assay: Tumor Cell Clearance Test B16F10 Melanoma; format: in vivo, mouse; conditions: for CPM/Lung (Mean + SEM): labelled B16F10 cells i.v. 24 h later, lungs counted 18 h later; for CPM/Lung (Mean + SEM) / Treated/Control: N=6; for Treated/Control: T/C <0.40 considered positive
Excerpt: One common route of cancer spread is through the blood. Very few cancer cells survive this hostile environment to go on and form metastases; NK cells and macrophages are believed to play an important role in controlling this hematogenous spread (Hanna, N. Cancer Research, 42:1337, 1982). Following the injection of various immunomodulators, macrophages and NK cells can be removed and shown to kill tumor cells in tissue culture. […] In the tumor cell clearance assay detailed below, radiolabelled tumor cells are injected intravenously (i.v.) into mice injected with an immunomodulator one day earlier. A decreased number of tumor cells, as reflected by a decreased amount of radioactivity remaining in the lungs, is used as an endpoint.
The B16 tumor line established from melanoma tumor which arose spontaneously on the skin at the base of the ear in a C57BL mouse. The B16F10 tumor subline was derived from the parent B16 line by selection for its ability to form lung tumors […] after i.v. injection and was subsequently established in vitro after 10 cycles of lung metastasis formation (Fidler, Eur. J. Cancer 9:223, 1973). The B16F10 tumor line is maintained by serial passage in vitro.
On day 0 female mice are injected intraperitoneally (i.p.) with test compound (6 mice/group) or vehicle alone (10 mice/group). Twenty-four hours later all mice are injected intravenously with 100,000 [^125 I] Iododeoxyuridine labelled B16F10 melanoma cells in 0.2 mL. Eighteen hours later mice are sacrificed and lungs removed and counted on a gamma counter.
Control and experimental group mean values are compared to the vehicle control using a Student's t-test. Poly I:C is an immunostimulant which activates macrophages and NK cells to kill and clear tumor cells faster and thus results in fewer cpm/lung. Statistical significance is set at p<0.05, and compounds with treated/control (T/C) values of <0.40 are considered positive.

- pIC50 (L1210 cells; Mus musculus, L1210, 72 h): 5.52
Molecule: O=C1c2ccc3c4c(ccc(c24)C(=O)N1CCCNCCCCNCCCN1C(=O)c2ccc4c5c(ccc(c25)C1=O)CC4)CC3 [Example 1, 1,4-Bis-[3-(1,3,6,7-tetrahydro-1,3-dioxo-2H-indeno[6,7,1-def]isoquinoline-2-yl)propyl)-amino]butane dihydromethanesulfonate]

- pIC50 (L1210 cells; dihydrochloride, 4320 min): 5.76
Molecule: O=C1c2ccc3c4c(ccc(c24)C(=O)N1CCCNCCCCNCCCN1C(=O)c2ccc4c5c(ccc(c25)C1=O)CC4)CC3 [Example 2, 1.4-Bis-[3 3.6 7-tetrahydro-1.3-dioxo-2H-indeno[6,7,1-def]isoquinoline-2-yl)propyl-amino]butane dihydrochloride]

- pIC50 (L1210 cells; Mus musculus, L1210, 72 h): 6.54
Molecule: O=C1c2ccc3c4c(ccc(c24)C(=O)N1CCCCNCCCN1C(=O)c2ccc4c5c(ccc(c25)C1=O)CC4)CC3 [Example 4, 4-3-(1,3,6,7-Tetrahydro-1,3-dioxo-2H-indeno6,7,1-def]isoquinoline-2-yl)propyl-amino1-1-(1,3,6,7-tetrahydro-1,3-dioxo-2H-indeno-6,7,1-def]isoquinoline-2-yl)butane methanesulfonate]

The remaining lines, values behind:

Molecule: CCN(CCCCN(CC)CCCN1C(=O)c2ccc3c4c(ccc(c24)C1=O)CC3)CCCN1C(=O)c2ccc3c4c(ccc(c24)C1=O)CC3 [Example 3, 1,4-Bis-3-(1,3,6,7-tetrahydro-1,3-dioxo-2H-indeno6,7,1-def]isoquinoline-2-yl)-N-ethyl-propylamino]butane dihydrochloride]
- CPM/Lung (Mean + SEM) (B16F10 melanoma; 6.25 mg/kg i.p. on day 0): 27953 + 2567 CPM/Lung
- Treated/Control (B16F10 melanoma; 6.25 mg/kg i.p.): 0.90
- CPM/Lung (Mean + SEM) (B16F10 melanoma; 12.5 mg/kg i.p. on day 0): 24905 + 2497 CPM/Lung
- Treated/Control (B16F10 melanoma; 12.5 mg/kg i.p.): 0.80
- CPM/Lung (Mean + SEM) (B16F10 melanoma; 25 mg/kg i.p. on day 0): 6992 + 1417 CPM/Lung
- Treated/Control (B16F10 melanoma; 25 mg/kg i.p., *p < 0.001 compared to vehicle control): 0.23
- CPM/Lung (Mean + SEM) (B16F10 melanoma; 50 mg/kg i.p. on day 0): 3558 + 476 CPM/Lung
- Treated/Control (B16F10 melanoma; 50 mg/kg i.p., *p < 0.001 compared to vehicle control): 0.11
- activating nonspecific immune cells against tumor cells (B16F10 melanoma; result in words, mice, B16F10 tumor cell clearance): effective in activating nonspecific immune cells against the B16F10 melanoma
- pIC50 (L1210 cells; Mus musculus, L1210, 72 h): 7.66

Molecule: Poly I:C [reference compound]
- CPM/Lung (Mean + SEM) (B16F10 melanoma; 5 mg/kg i.p. on day 0): 1044 + 87 CPM/Lung
- Treated/Control (B16F10 melanoma; 5 mg/kg i.p., *p < 0.001 compared to vehicle control): 0.03

Reference: US5086059A, “Bis-naphthalimides as anticancer agents” (Du Pont Merck Pharmaceutical Company, priority 1990, dated 1992)
